Reference: ChEMBL document CHEMBL1201862, “PubChem BioAssay data set” (2004)
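Compound exposure: 48 hours, 5 concentrations, 96-well plates. GI50 marks 50% less growth.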 Activity calls are given as the source filed them. Cut-off read from the data, not from the text of the source: active = GI50 up to about 1.1 µM and inactive = higher. Where a SMILES comes first, the peptide text is derived from it. The star is where a group is joined. Cbz = O=C(OCc1ccccc1)*

Tests used:
Experiment in all cases: NCI-60 cell line screen, 48 h
HT-29 = test system: HT-29
UACC-257 = test system: UACC-257
IGROV-1 = test system: IGROV-1
RPMI-8226 = test system: RPMI-8226
M14 = test system: M14
CCRF-CEM = test system: CCRF-CEM
SN12C = test system: SN12C
ACHN = test system: ACHN
HOP-62 = test system: HOP-62
HOP-92 = test system: HOP-92
COLO 205 = test system: COLO 205
NCI/ADR-RES = test system: NCI/ADR-RES
SF-539 = test system: SF-539
CAKI-1 = test system: CAKI-1
PC-3 = test system: PC-3
HCT-116 = test system: HCT-116
HCC 2998 = test system: HCC 2998
A498 = test system: A498
OVCAR-3 = test system: OVCAR-3
SR = test system: SR

Measured: GI50

CN(O)C(=O)CCC(NC(=O)CCC(N)C(=O)O)C(=O)NCC(=O)O (centres undefined)
inactive: HT-29 > 100 µM | UACC-257 > 100 µM | IGROV-1 > 100 µM | RPMI-8226 > 100 µM | M14 > 100 µM | CCRF-CEM > 100 µM | SN12C > 100 µM | ACHN > 100 µM | HOP-62 > 100 µM | HOP-92 > 100 µM | COLO 205 > 100 µM | NCI/ADR-RES > 100 µM | SF-539 > 100 µM | CAKI-1 > 100 µM | PC-3 > 100 µM | HCT-116 > 100 µM | HCC 2998 > 100 µM | A498 > 100 µM | OVCAR-3 > 100 µM

CCOc1c(OC)cc(-c2nc3n(n2)C(=O)C(CC)S3)cc1OC (centres undefined)
inactive: HT-29 > 10 µM | UACC-257 > 10 µM | IGROV-1 > 10 µM | RPMI-8226 > 10 µM | M14 > 10 µM | CCRF-CEM > 10 µM | SN12C > 10 µM | ACHN > 10 µM | HOP-62 > 10 µM | COLO 205 > 10 µM | NCI/ADR-RES > 10 µM | SF-539 > 10 µM | CAKI-1 > 10 µM | PC-3 > 10 µM | HCT-116 > 10 µM | HCC 2998 > 10 µM | SR > 10 µM | A498 > 10 µM | OVCAR-3 > 10 µM

COC(=O)c1cc(CC2Cc3cc4c(cc3C2=O)CCC4)cc2c1CCC2 (centres undefined)
inactive: HT-29 51.8 µM | UACC-257 77.6 µM | IGROV-1 > 100 µM | RPMI-8226 > 100 µM | M14 52.1 µM | CCRF-CEM > 100 µM | SN12C > 100 µM | ACHN > 100 µM | HOP-62 53.1 µM | COLO 205 93.3 µM | NCI/ADR-RES 81.5 µM | SF-539 > 100 µM | CAKI-1 64.6 µM | PC-3 15.2 µM | HCT-116 42.2 µM | HCC 2998 > 100 µM | SR > 100 µM | A498 > 100 µM | OVCAR-3 > 100 µM

CNc1ncnc2c1cnn2Cc1cn(COCC(O)CO)nn1 (centres undefined)
inactive: HT-29 > 100 µM | UACC-257 > 100 µM | IGROV-1 > 100 µM | RPMI-8226 > 100 µM | M14 > 100 µM | CCRF-CEM > 100 µM | SN12C > 100 µM | ACHN > 100 µM | HOP-62 > 100 µM | HOP-92 59.4 µM | COLO 205 > 100 µM | NCI/ADR-RES > 100 µM | SF-539 > 100 µM | CAKI-1 > 100 µM | PC-3 > 100 µM | HCT-116 > 100 µM | HCC 2998 > 100 µM | A498 > 100 µM | OVCAR-3 > 100 µM

c1ccc2c(c1)CCc1c-2n(CCN2CCOCC2)c2ccccc12
inactive: HT-29 13.2 µM | UACC-257 32.9 µM | IGROV-1 11.7 µM | RPMI-8226 35.2 µM | M14 44 µM | CCRF-CEM 21.2 µM | SN12C > 100 µM | ACHN > 100 µM | HOP-62 68.4 µM | HOP-92 17.8 µM | COLO 205 37.4 µM | NCI/ADR-RES > 100 µM | SF-539 37.9 µM | CAKI-1 22.1 µM | PC-3 19.1 µM | HCT-116 > 100 µM | HCC 2998 14.3 µM | SR 15 µM | OVCAR-3 > 100 µM

Clc1nc2c(C#Cc3ccccc3)ncnc2n1C1CCCCO1 (centres undefined)
inactive: HT-29 12.4 µM | UACC-257 15 µM | IGROV-1 13.5 µM | RPMI-8226 4.12 µM | M14 12.1 µM | CCRF-CEM 5.15 µM | SN12C 10.4 µM | ACHN 16.1 µM | HOP-62 31.2 µM | HOP-92 14.8 µM | COLO 205 15.4 µM | NCI/ADR-RES 25.8 µM | SF-539 14.3 µM | CAKI-1 10 µM | PC-3 12.2 µM | HCT-116 10 µM | HCC 2998 14.7 µM | SR 4.37 µM | OVCAR-3 14.8 µM

Cc1ccccc1/N=N/c1ccc(/N=N/c2c(O)ccc3cc(S(=O)(=O)O)cc(S(=O)(=O)O)c23)c(C)c1
inactive: HT-29 > 100 µM | UACC-257 > 100 µM | IGROV-1 > 100 µM | RPMI-8226 > 100 µM | M14 > 100 µM | CCRF-CEM > 100 µM | ACHN > 100 µM | HOP-62 > 100 µM | HOP-92 > 100 µM | COLO 205 > 100 µM | NCI/ADR-RES > 100 µM | SF-539 > 100 µM | CAKI-1 > 100 µM | PC-3 > 100 µM | HCT-116 > 100 µM | HCC 2998 > 100 µM | SR > 100 µM | OVCAR-3 > 100 µM

CC1CN(c2cc3c(cc2F)c(=O)c(C(=O)O)cn3-c2ccc(N3CCN(C)CC3)cn2)CC(C)N1 (centres undefined)
inactive: HT-29 > 100 µM | UACC-257 > 100 µM | IGROV-1 > 100 µM | RPMI-8226 > 100 µM | M14 > 100 µM | CCRF-CEM > 100 µM | SN12C > 100 µM | HOP-62 89.9 µM | HOP-92 > 100 µM | COLO 205 52.8 µM | NCI/ADR-RES > 100 µM | SF-539 > 100 µM | CAKI-1 > 100 µM | PC-3 > 100 µM | HCT-116 > 100 µM | SR > 100 µM | A498 > 100 µM | OVCAR-3 > 100 µM

CC(C)(C)OC(=O)C1=C(N)N(Cc2ccccc2)C2(C)C=CC(=O)C=C12 (centres undefined)
inactive: HT-29 4.03 µM | UACC-257 5.24 µM | IGROV-1 5.31 µM | RPMI-8226 2.6 µM | M14 2.98 µM | CCRF-CEM 2.58 µM | SN12C 8.47 µM | ACHN 2.47 µM | HOP-62 16 µM | HOP-92 2.16 µM | COLO 205 2.3 µM | NCI/ADR-RES 23.9 µM | SF-539 5.3 µM | CAKI-1 1.83 µM | PC-3 7.21 µM | HCT-116 3.27 µM | HCC 2998 14.2 µM | A498 10.2 µM | OVCAR-3 3.1 µM

O=C1c2ccccc2-c2nnc3c(c21)-c1ccccc1C3
inactive: HT-29 48 µM | UACC-257 > 100 µM | RPMI-8226 57.1 µM | M14 > 100 µM | CCRF-CEM 89.3 µM | SN12C > 100 µM | ACHN 27.5 µM | HOP-92 > 100 µM | COLO 205 46.6 µM | NCI/ADR-RES > 100 µM | SF-539 93.8 µM | CAKI-1 65.6 µM | PC-3 > 100 µM | HCT-116 64 µM | SR 12 µM

Cc1nc2ccc(S(=O)(=O)Nc3ccccc3)cc2c(=O)n1NC(=O)CNc1ccccc1
inactive: HT-29 > 100 µM | UACC-257 > 100 µM | IGROV-1 67.3 µM | RPMI-8226 > 100 µM | M14 > 100 µM | CCRF-CEM > 100 µM | SN12C > 100 µM | ACHN > 100 µM | HOP-62 73.5 µM | HOP-92 > 100 µM | COLO 205 > 100 µM | NCI/ADR-RES > 100 µM | SF-539 > 100 µM | CAKI-1 > 100 µM | PC-3 > 100 µM | HCT-116 > 100 µM | HCC 2998 > 100 µM | SR > 100 µM | OVCAR-3 > 100 µM

CC1(C)CC(=O)c2c(nc3c(ccc4ccccc43)c2-c2ccc(NC(=O)CCCC(=O)Nc3ccc(-c4c5c(nc6c4ccc4ccccc46)CC(C)(C)CC5=O)cc3)cc2)C1
inactive: HT-29 > 100 µM | UACC-257 > 100 µM | IGROV-1 58.5 µM | RPMI-8226 > 100 µM | M14 > 100 µM | CCRF-CEM > 100 µM | SN12C > 100 µM | ACHN > 100 µM | HOP-62 > 100 µM | COLO 205 > 100 µM | NCI/ADR-RES > 100 µM | SF-539 > 100 µM | CAKI-1 > 100 µM | PC-3 > 100 µM | HCT-116 > 100 µM | SR > 100 µM | OVCAR-3 > 100 µM

CC1(C)OC(=O)CC12CCN(Cc1ccccc1)CC2
inactive: HT-29 > 100 µM | UACC-257 > 100 µM | IGROV-1 > 100 µM | RPMI-8226 > 100 µM | CCRF-CEM > 100 µM | SN12C > 100 µM | ACHN > 100 µM | HOP-62 > 100 µM | HOP-92 > 100 µM | COLO 205 > 100 µM | NCI/ADR-RES > 100 µM | SF-539 > 100 µM | CAKI-1 > 100 µM | PC-3 > 100 µM | HCT-116 > 100 µM | SR > 100 µM | A498 > 100 µM | OVCAR-3 > 100 µM

COC(=O)C(CC(C)C)NC(=O)C(CCCNC(=N)N)NC(=O)OCc1ccccc1 (stereo not drawn) (Cbz-Arg-Leu-OMe; configuration not given here)
inactive: HT-29 > 100 µM | IGROV-1 > 100 µM | RPMI-8226 > 100 µM | M14 > 100 µM | CCRF-CEM > 100 µM | SN12C > 100 µM | ACHN > 100 µM | HOP-62 > 100 µM | HOP-92 > 100 µM | COLO 205 > 100 µM | NCI/ADR-RES > 100 µM | CAKI-1 > 100 µM | PC-3 > 100 µM | HCT-116 > 100 µM | HCC 2998 > 100 µM | SR > 100 µM | OVCAR-3 > 100 µM

O=C(Nc1cccc(C(F)(F)F)c1)c1cc(Br)cc(Br)c1O [FLUOROSALAN]
inactive: HT-29 3.91 µM | UACC-257 2.52 µM | IGROV-1 4.28 µM | RPMI-8226 2.08 µM | M14 4.94 µM | CCRF-CEM 3.22 µM | SN12C 3.59 µM | ACHN 3.06 µM | HOP-62 5.22 µM | HOP-92 2.27 µM | COLO 205 3.18 µM | NCI/ADR-RES 2.36 µM | SF-539 3.55 µM | CAKI-1 2.3 µM | PC-3 2.32 µM | HCT-116 2.32 µM | HCC 2998 3.03 µM | SR > 10 µM | OVCAR-3 2.24 µM
